Data from patent publication US20100197914A1, “Purine Derivatives as Adenosine Al Receptor Ligands” (priority 2007, published 2010).

molecular target: T1, adenosine A1 receptor (Homo sapiens, UniProt P30542); experiment: In vitro functional activity based on the stimulation of [35S]-GTPγS binding (SPA, agonist format); type: biochemical; conditions: mean of >2 measurements; A1 membranes, [35S]-GTPγS SPA assay; read-out: Mean pEC50 (converted)
T1 sequence (P30542 1-326): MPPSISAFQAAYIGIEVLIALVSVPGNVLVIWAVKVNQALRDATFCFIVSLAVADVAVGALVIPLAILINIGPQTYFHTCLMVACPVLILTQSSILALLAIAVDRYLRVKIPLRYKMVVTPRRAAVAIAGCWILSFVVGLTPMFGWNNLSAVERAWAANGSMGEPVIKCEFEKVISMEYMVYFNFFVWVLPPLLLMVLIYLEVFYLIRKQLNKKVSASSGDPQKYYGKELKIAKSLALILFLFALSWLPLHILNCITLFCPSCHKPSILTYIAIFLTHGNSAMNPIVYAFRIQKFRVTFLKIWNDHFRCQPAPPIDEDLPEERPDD
Source text: In Vitro Functional Activity at the Human a Receptor Based on the Stimulation of [^35S]-GTPγS Binding
In brief the assay is based on the conventional GTPγS binding assay described by ([Lorenzen A, Guerra L, Vogt H, et al, (1996)] Interaction of full and partial agonists of the A1 adenosine receptor with receptor/G protein complexes in rat brain membranes. Mol Pharmacol. 49(5):915-26) The assay is run as a SPA assay where the A1 membranes are captured by wheatgerm agglutinin (WGA) SPA beads, through a specific interaction between WGA and carbohydrate residues of glycoprotein's on the surfaces for the membranes. Upon receptor stimulation, [^35S]-GTPγS binds specifically to the alpha subunit of the G-protein thus bringing the [^35S]-GTPγS into close proximity with the SPA beads. Emitted β particles from the [^35S]-GTPγS excite the scintillant in the beads and produce light. […] The assays were performed in a final volume of 250 μL per well in a white non-binding surface 96-well Optiplates and could be run in either an agonist format, or an antagonist format (pre-incubation with an EC50 concentration of the appropriate receptor agonist).

Compound | EC50 [nM]
O=C(CO)N[C@H]1C[C@@H](n2cnc3c(NC4CCCC4)nc(Cl)nc32)[C@H](O)[C@@H]1O [Example 4, N-[(1S,2R,3S,4R)-4-(2-Chloro-6-cyclopentylamino-purin-9-yl)-2,3-dihydroxy-cyclopentyl]-2-hydroxy-acetamide] | 40.1
CCC(=O)N[C@H]1C[C@@H](n2cnc3c(NC4CCCC4)nc(Cl)nc32)[C@H](O)[C@@H]1O [Example 2, N-[(1S,2R,3S,4R)-4-(2-Chloro-6-cyclopentylamino-purin-9-yl)-2,3-dihydroxy-cyclopentyl]-propionamide] | 67.7
CCC(=O)N[C@H]1C[C@@H](n2cnc3c(NC4CCCC4)ncnc32)[C@H](O)[C@@H]1O [Example 1, N-[(1S,2R,3S,4R)-4-(6-Cyclopentylamino-purin-9-yl)-2,3-dihydroxy-cyclopentyl]-propionamide] | 47.9
O=C(CO)N[C@H]1C[C@@H](n2cnc3c(NC4CCCC4)ncnc32)[C@H](O)[C@@H]1O [Example 3, N-[(1S,2R,3S,4R)-4-(6-Cyclopentylamino-purin-9-yl)-2,3-dihydroxy-cyclopentyl]-2-hydroxy-acetamide] | 97.9
